Reference: patent US12171744B2, “Pharmaceutical combinations for the treatment of cancer” (Presage Biosciences, Inc., priority 2016, dated 2024)

Legend:
[1] = test system: MV-4-11; test: Western blot of treated AML cells; assay type: cell-based
Method: (§1) Cell lines shown in Table 1, adherent or suspension, were treated in 6-well dishes or T10 flasks respectively, seeded at one million per ml density prior to treatment in total volumes of 3-10 ml. All agents used for in vitro cell treatments were formulated in water/DMSO to achieve required concentrations (as stated in respective figure labels/legends) with DMSO concentrations not exceeding 0.01%. Drug sources are indicated in table under ‘CIVO microinjection studies’. Cells were harvested at experimental time points: 2, 6, or 24 hours post treatment as indicated in respective figures, first by washing cells twice in ice-cold PBS in 15 ml falcon tubes, centrifugation at 1000 rpm for 5 mins followed by lysis of the respective cell pellets as described in section below. Note: Drug resistant NUDHL1 Dox 1000 nM and Toledo Dox 1000 nM cell lines were generated at Presage by culturing parental lines in media with stepwise increments in Doxorubicin concentration over several passages. These cells were used to generate xenografts when resistance to 1 uM Dox was achieved.
(§2) Protein lysates were prepared by adding ice-cold 1×RIPA Buffer (from 10×, Millipore) with 1×-3× Halt protease and phosphatase inhibitor cocktail (100×, Pierce) to cell pellets, followed by pulse sonication (˜3-5 secs) three times. Lysates were cleared by centrifugation at 14K rpm for 15-20 mins and the supernatant (lysate) was collected for further analysis. To prepare lysates from cryopreserved xenograft tumor tissue, tissue was first homogenized using a hand-held tissue homogenizer (Cole Palmer) in above lysis buffer followed by pulse sonication and centrifugation as described above. Above steps were carried out under ice cold conditions. Protein samples were quantified using Bradford assay (Biorad) at 1:10 or higher dilutions using appropriate blank controls with 1×RIPA. 20-25 micrograms of protein from each sample were subject to SDS-PAGE using BOLT 4-12% Bis-Tris gels (Thermofisher) and transferred to either 0.45 or 0.2 micron pore size membranes (as applicable based on protein molecular size), and either nitrocellulose (NC) or pvdf (Thermofisher) using manufacturer's protocol, blocked for one hour in 5% milk at room temperature, probed with primary antibodies (Table 2) at 4 deg C. overnight and corresponding HRP-conjugated secondary antibodies (Jackson Immunoresearch, 1:10,000-1:20,000 dilutions) for 1 hour at room temperature. Three PBS/0.01% Tween-20 washes (5-10 mins each) were carried out after each antibody incubation. ECL chemiluminescent substrate (Pierce or GE) and autoradiographic film (Thermofisher) was used for detection of protein signals.
(§3) At the given time points, cells were lysed and subjected to western blot analysis with antibodies that specifically recognize phosphorylated RNA pol II (pSer2), MCL-1, cleaved PARP, and Beta-actin. […] Cleaved PARP (cPARP) may be used as a biomarker of apoptosis.
(§4) At the given time points, cells were lysed and subjected to western blot analysis with antibodies that specifically recognize phosphorylated RNA pol II (pSer2), MCL-1, cleaved PARP, and Beta-actin. […] Venetoclax is observed to induce MCL-1 upregulation in all three cell lines.

[2] = test system: OCI-AML-3; test: Western blot of treated AML cells; assay type: cell-based
Method: as §1, §2, §3, §4

[3] = test system: SKM-1; test: Western blot of treated AML cells; assay type: cell-based
Method: as §1, §2, §3, §4

[4] = molecular target: CDK9 (Homo sapiens, UniProt P50750); test: Kinase inhibition profiling (filter binding assay with γ-33P-ATP)
Sequence of CDK9 (P50750 whole entry): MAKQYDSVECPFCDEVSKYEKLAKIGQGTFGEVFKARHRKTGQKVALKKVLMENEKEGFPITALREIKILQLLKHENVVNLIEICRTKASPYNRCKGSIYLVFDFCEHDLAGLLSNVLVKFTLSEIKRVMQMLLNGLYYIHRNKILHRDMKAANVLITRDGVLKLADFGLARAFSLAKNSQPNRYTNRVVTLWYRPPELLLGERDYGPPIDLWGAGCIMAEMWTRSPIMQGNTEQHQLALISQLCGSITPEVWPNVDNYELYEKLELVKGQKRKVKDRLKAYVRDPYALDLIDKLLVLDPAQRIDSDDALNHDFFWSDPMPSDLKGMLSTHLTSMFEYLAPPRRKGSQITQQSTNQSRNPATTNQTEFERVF
Sequence of CDK9 (O60563 whole entry partner): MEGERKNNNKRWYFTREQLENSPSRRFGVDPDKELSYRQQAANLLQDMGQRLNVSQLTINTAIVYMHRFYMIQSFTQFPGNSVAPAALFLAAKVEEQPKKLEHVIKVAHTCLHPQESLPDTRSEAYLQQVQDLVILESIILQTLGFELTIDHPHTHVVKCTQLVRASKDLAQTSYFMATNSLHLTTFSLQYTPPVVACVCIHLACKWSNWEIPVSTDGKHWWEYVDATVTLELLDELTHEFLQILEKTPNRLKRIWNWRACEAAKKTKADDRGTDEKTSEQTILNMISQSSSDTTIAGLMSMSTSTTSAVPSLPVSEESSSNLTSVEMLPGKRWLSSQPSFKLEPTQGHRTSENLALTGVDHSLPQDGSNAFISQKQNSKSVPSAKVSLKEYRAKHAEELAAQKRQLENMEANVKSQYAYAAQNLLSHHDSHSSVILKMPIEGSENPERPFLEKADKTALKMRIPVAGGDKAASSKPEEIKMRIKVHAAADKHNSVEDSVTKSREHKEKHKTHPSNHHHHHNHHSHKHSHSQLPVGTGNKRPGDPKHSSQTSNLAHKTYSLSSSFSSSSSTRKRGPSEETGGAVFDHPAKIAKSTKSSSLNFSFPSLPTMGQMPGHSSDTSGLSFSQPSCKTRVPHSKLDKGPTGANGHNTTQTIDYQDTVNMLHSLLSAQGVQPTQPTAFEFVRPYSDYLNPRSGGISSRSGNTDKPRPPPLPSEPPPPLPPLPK
Method: The testing facility was Reaction Biology Corp. Kinase activity was measured using a filter binding assay with radioactive γ-33P-ATP as phosphate donor. The ATP concentration was near the Km for respective kinase. For each kinase, an IC50 value were calculated from a 10-point concentration curve of the test article and converted to Ki values.

[5] = test system: 38 different kinases; test: Comparison of inhibition profiles on 38 different kinases; assay type: biochemical; conditions: compared with flavopiradol
[6] = test system: OCI Ly10 model of DLBCL; test: Western blot of treated cells; assay type: cell-based; conditions: 5 uM voruciclib, 50 nM venetoclax; 24 h
Method: as §1, with “These cells were used to generate xenografts when resistance to 1 uM Dox was achieved.” left out
(§5) Protein lysates were prepared by adding ice-cold 1×RIPA Buffer (from 10×, Millipore) with 1×-3× Halt protease and phosphatase inhibitor cocktail (100×, Pierce) to cell pellets, followed by pulse sonication (˜3-5 secs) three times. […] Protein samples were quantified using Bradford assay (Biorad) at 1:10 or higher dilutions using appropriate blank controls with 1×RIPA. […]

[7] = test system: DLBCL xenograft tumors (OCILY10); test: MCL1 expression in xenograft tumors after oral dosing; assay type: in vivo, mice; conditions: 100 mpk, oral gavage daily for 5 days, 4 h post final dose
Method: as §2, with “Three PBS/0.01% Tween-20 washes (5-10 mins each) were carried out after each antibody incubation. ECL chemiluminescent substrate (Pierce or GE) and autoradiographic film (Thermofisher) was used for detection of protein signals.” left out

[8] = test system: HCC1187 triple negative breast cancer (TNBC) xenograft model; test: CIVO microinjection, MCL-1 and CC3 staining; assay type: in vivo, mice; conditions: marker of apoptosis
Method: Mice were enrolled into CIVO drug studies when the tumor volume reached approximately 1000 mm^3. Microinjection studies were performed using the CIVO device as previously described (Klinghoffer et al, Science Translational Medicine 2015) The device was configured with 6 injection needles set for a 6 mm injection length and a total volume delivery of 3 μl. A fluorescent tracking marker (FTM) was added to each drug reservoir in vehicle for delivery along with each drug or drug combination. All micro-doses were equivalent to or lower than what would be allowed under FDA guidelines for Exploratory IND (Investigational New Drug) studies and by solubility of drug into vehicle. Total amounts of agents injected are tabulated below in Table 4.
A drug screen was performed to test multiple drugs simultaneously.
FIG. 11 depicts a similar experiment performed on the HCC1187 triple negative breast cancer (TNBC) xenograft model. […] Cells were then stained for CC3 expression (shown in red) as a marker of apoptosis.
FIGS. 20A-20D depicts the HCC1187 triple negative breast cancer (TNBC) xenograft model. Briefly, cells were treated with vehicle, voruciclib alone, ixazomib alone, or voruciclib and ixazomib in combination. Cells were then stained for CC3 expression (shown in red) as a marker of apoptosis.

[9] = Body weight in HCC1187 TNBC mouse model; conditions: in vivo
Method: Mice were enrolled for study when tumors reached an average volume of 150-200 mm^3. Tumor volume was calculated as V=length×width×height, all three dimensions measured using digital calipers along with body weight. Animals were removed from the study when—any one of the three measured dimensions of the tumor exceeding 2 cm, volume exceeding 2500 mm^3, ulceration or body weight loss greater than 20%.

[10] = test system: RIvA DLBCL model; test: Western blot of treated cells; assay type: cell-based; conditions: increasing concentration of voruciclib, single agent
Method: as §1, with “These cells were used to generate xenografts when resistance to 1 uM Dox was achieved.” left out
as §5

[11] = molecular target: ICK (Homo sapiens, UniProt Q9UPZ9); test: Kinase inhibition profile; assay type: biochemical
Sequence of ICK (Q9UPZ9 whole entry): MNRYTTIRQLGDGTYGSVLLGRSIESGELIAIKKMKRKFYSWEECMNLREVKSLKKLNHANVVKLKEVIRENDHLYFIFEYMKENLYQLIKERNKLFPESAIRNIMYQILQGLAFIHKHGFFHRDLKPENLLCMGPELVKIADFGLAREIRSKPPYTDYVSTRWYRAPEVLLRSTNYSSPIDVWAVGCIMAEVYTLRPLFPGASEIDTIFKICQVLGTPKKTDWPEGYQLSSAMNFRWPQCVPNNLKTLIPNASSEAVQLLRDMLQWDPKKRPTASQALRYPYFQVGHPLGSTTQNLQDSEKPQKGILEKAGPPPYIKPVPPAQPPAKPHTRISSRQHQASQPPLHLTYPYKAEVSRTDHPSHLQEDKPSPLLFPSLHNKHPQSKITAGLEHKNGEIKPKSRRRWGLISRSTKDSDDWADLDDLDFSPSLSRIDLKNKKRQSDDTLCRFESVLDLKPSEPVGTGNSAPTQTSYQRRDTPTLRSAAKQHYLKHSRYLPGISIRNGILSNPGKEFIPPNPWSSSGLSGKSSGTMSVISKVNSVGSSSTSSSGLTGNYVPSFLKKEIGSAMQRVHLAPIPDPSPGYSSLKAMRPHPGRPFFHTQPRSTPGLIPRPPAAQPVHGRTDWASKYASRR

[12] = voruciclib 1.5 and 5.0 micromolar, 2, 6, or 24 h
[13] = voruciclib 1.5 micromolar, venetoclax 100 nM, 24 h

CN1CC[C@@H](c2c(O)cc(O)c3c(=O)cc(-c4ccc(C(F)(F)F)cc4Cl)oc23)[C@@H]1CO (relative stereo) [voruciclib, (+)-trans-2-(2-Chloro-4-trifluoromethylphenyl)-5,7-dihydroxy-8-(2-hydroxymethyl-1-methylpyrrolidin-3-yl)-chromen-4-one]
MCL-1 [1, 12]: suppresses
apoptosis (cleaved PARP) [1, 12]: induces apoptosis
MCL-1 [1, 13]: dampens
apoptosis (PARP) [1, 13]: neither agent alone induces apoptosis
MCL-1 [2, 12]: suppresses
apoptosis (cleaved PARP) [2, 12]: induces apoptosis
MCL-1 [2, 13]: dampens
apoptosis (PARP) [2, 13]: neither agent alone induces apoptosis
MCL-1 [3, 12]: suppresses
apoptosis (cleaved PARP) [3, 12]: induces apoptosis
MCL-1 [3, 13]: dampens
apoptosis (PARP) [3, 13]: neither agent alone induces apoptosis
inhibition of CDK9 [4]: strongest inhibition
specificity for CDKs [5]: more specific for CDKs than flavopiradol
apoptosis (cleaved PARP) [6]: neither compound significantly induces apoptosis as a single agent
MCL1 expression in xenograft tumors [7]: suppressed
CC3 expression [8]: little to no increase
body weight of mice [9]: unaffected
MCL-1 [10]: suppresses
apoptosis (cPARP) [10]: increases as the concentration of voruciclib increases
inhibition of ICK [11]: does not show potent inhibition
